This is an account of results in patent US8372879B2, “4-(heterocycloalkyl) benzene-1,3-diol compounds as tyrosinase inhibitors, process for the preparation thereof and use thereof in human medicine and also in cosmetics” (Galderma Research & Development, priority 2008, dated 2013).

Where only a bound is given, the exact number is not on record here.

Data set [1] in a line: Cell toxicity (3H-leucine incorporation) in melanogenesis assay. Particulars: human, MNT1 human melanoma cells, incubation for 24 h. The data set is classed as cell-based. As to the method:
(§1) The inhibition of melanogenesis is measured in MNT1 human melanoma cells according to a protocol adapted from Reigner et al., Cell Mol Biol (1999) 45: 969-980. The assay is based on the concomitant incorporation of 2 radiolabelled tracers: ^14C-thiouracil is incorporated into the neosynthesized melanin and reflects melanogenesis, whereas ^3H-leucine is incorporated into the proteins and reflects cell viability and, consequently, the toxicity of the compounds tested.
(§2) The MNT1 cells are seeded into 96-well plates in the presence of the test compounds and of the radio-isotopes. After incubation for 24 h at 37° C., the cells are washed and the amount of the 2 radioisotopes is measured. The test compounds are evaluated in terms of dose-response so as to calculate an IC50 for inhibition of melanogenesis on the basis of the ^14C incorporation which is standardized through the ^3H incorporation. An IC50 for cell toxicity is also calculated on the basis of the ^3H incorporation.

Data set [2] concerns MNT1 human melanoma cells. Kind of data set: Melanogenesis inhibition assay (14C-thiouracil incorporation standardized through 3H-leucine). The data set is classed as cell-based. Particulars: MNT-1, incubation for 24 h, 14C incorporation standardized through 3H incorporation. As to the method:
as §1, §2

The target of the next data set is T1, tyrosinase (Mus musculus, UniProt P11344).
T1 construct: the supernatant obtained constitutes the cell lysate used as tyrosinase source in the enzymatic assay; endogenous in cells; host or cells: B16F1 murine melanoma cells, stimulated with alpha-MSH; detergent/ultrasound lysate supernatant
T1 sequence (P11344 19-533): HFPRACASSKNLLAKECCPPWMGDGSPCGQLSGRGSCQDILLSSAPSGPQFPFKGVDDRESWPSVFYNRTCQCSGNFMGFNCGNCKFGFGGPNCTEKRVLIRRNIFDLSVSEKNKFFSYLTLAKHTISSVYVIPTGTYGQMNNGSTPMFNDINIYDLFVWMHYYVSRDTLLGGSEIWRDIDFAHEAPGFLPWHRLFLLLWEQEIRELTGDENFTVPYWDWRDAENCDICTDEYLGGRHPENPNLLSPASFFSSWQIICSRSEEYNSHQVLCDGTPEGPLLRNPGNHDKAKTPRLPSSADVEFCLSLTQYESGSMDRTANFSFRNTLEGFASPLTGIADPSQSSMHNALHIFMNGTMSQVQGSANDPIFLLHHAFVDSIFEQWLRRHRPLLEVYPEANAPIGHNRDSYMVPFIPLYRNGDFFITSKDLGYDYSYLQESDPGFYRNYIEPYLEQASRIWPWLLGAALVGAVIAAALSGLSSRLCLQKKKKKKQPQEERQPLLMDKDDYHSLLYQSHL
Kind of data set: Tyrosinase activity inhibition assay (B16F1 cell lysate, L-tyrosine/MBTH, 520 nm). The format is biochemical, murine. Particulars: lysate of B16F1 cells, 6 hours of incubation at 37° C.; read-out: Tyrosine hydroxylase/Dopa oxidase IC50. The protocol: The activity of the inhibitors is measured using a lysate of B16F1 cells (murine melanoma line). In the presence of the L-tyrosine substrate, the tyrosinase present in these cells catalyses the hydroxylation of L-tyrosine to give L-DOPA and then the oxidation of the L-DOPA to give dopaquinone. In the presence of MBTH (3-methyl-2-benzothiazolinone hydrazone), the dopaquinone is trapped so as to form a pink complex which absorbs at 520 nm.
The B16F1 cells are cultured in DMEM medium+10% foetal calf serum+10^−9M α-MSH for 4 days at 37° C. under 7% CO2. They are treated with trypsin, washed in PBS, counted and pelleted. The pellet is taken up at 10^7 cells/ml in lysis buffer (10 mM sodium phosphate, pH 6.8-1% Igepal) and the suspension is treated with ultrasound for 10 seconds. After centrifugation for 30 minutes at 4000 rpm, the supernatant obtained constitutes the cell lysate used as tyrosinase source in the enzymatic assay.
The assays are carried out in duplicate in 384-well plates in a total volume of 50 μl. […]
The plate is incubated at 37° C. and a spectro-photometric reading is carried out at 520 nm after 6 hours of incubation. In order to avoid any possible absorption of the products, the system uses corrected absorbance (absorbance at time 6 h—absorbance at time zero). […]

Consider `Oc1ccc(C2CCOCC2)c(O)c1` [Compound 1, 4-(tetrahydropyran-4-yl)benzene-1,3-diol], for which, in data set [1], the IC50 at 24 h is over 999000 nM. For the same compound, the figures for the IC50 (in data set [2]; on tyrosinase) were 1000 nM and 100 nM, respectively.

`Oc1ccc(C2CCSCC2)c(O)c1` [Compound 2, 4-(tetrahydrothiopyran-4-yl)benzene-1,3-diol]: at tyrosinase, the IC50 was 400 nM.

`CCCCc1ccc(O)cc1O` [4-butylresorcinol (Rucinol), 4-butylresorcinol, reference compound]: in data set [1], the IC50 at 24 h was determined as 55000 nM. The compound further gave an IC50 in data set [2] of 15000 nM.
